Read-outs that look alike come from different tables or passages of the source.
What was measured:
[1] = target: T1, 19 kD truncated collagenase-1 (MMP-1) (Homo sapiens, UniProt P03956); test: Matrix metalloprotease inhibition, fluorogenic substrate: collagenase-1; format: biochemical
T1 construct: 19 kD truncated collagenase-1 (MMP-1)
T1 sequence (P03956 101-269 limits assumed): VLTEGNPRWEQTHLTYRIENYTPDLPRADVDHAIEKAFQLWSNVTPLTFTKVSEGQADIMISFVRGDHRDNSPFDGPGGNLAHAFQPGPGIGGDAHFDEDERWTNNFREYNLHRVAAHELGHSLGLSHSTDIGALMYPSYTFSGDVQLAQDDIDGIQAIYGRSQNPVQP
Description: (§1) Assays are conducted in a total volume of 0.180 mL assay buffer (200 mM NaCl, 50 mM Tris, 5 mM CaCl2, 10 μM ZnSO4, 0.005% Brij 35, pH 7.6) in each well of a black 96-well microtiter plate. 19 kD collagenase-1, 20 kD collagenase-3, stromelysin-1,and 50 kD gelatinase B concentrations are adjusted to 500 pM, 30 pM, 5 nM, and 100 pM, respectively. A dose response is generated using an eleven-point, 3-fold serial dilution with initial starting test compound concentrations of 100, 10, or 1 μM. Inhibitor and enzyme reactions are incubated for 30 minutes at ambient temperature and then initiated with 10 μM fluorogenic substrate (above). The product formation is measured at Excitation343 /Emission450 nm after 45-180 minutes using a Fluostar SLT fluorescence analyzer. Percent inhibition is calculated at each inhibitor concentration and the data are plotted using standard curve fitting programs. IC50 values are determined from these curves. Assays are run at low substrate concentration ([S]<<Km) such that the calculated IC50 values are equivalent to Ki within experimental error.

stromelysin-1 = stromelysin-1 (Homo sapiens, UniProt P08254); test: Matrix metalloprotease inhibition, fluorogenic substrate: stromelysin-1; format: biochemical
Description: as §1

[2] = test system: release of soluble tumor necrosis factor α from stimulated monocytes; test: Cell-based TNFα release inhibition, LPS/PMA-stimulated MonoMac 6 cells, ELISA; details: Homo sapiens, MONO-MAC-6, 37° C., 2 h
Description: Compounds (10 mM) are serially diluted 1:3 in DMSO. Compound dilutions (20 μL) are added to a sterile round bottom 96 well plate (20 μL:200 μL total volume=1:10 for final concentrations of […] for test compounds). MonoMac 6 cell suspension (130 μL, 1.5×10^6 cells/mL) is then added to each well resulting in 2×10^5 cells/well. LPS/PMA (50 μL) solution is then added to each well (final concentrations of 10 ng/mL and 30 ng/mL respectively). The plate is incubated at 37° C. for 2 h then spun at 1,500 rpm for 3 min to pellet cells. The supernatant (120 μL/well) is removed to a new round bottom 96 well plate and diluted 1:10 in PBS. Then, 20 μL of the supernatant is transferred to a Cistron […] ELISA plate and processed according to the manufacturer's instructions to quantitate levels of TNFα. Percent inhibition of TNFα release is calculated at each inhibitor concentration and the data are plotted using standard curve fitting programs. IC50 values are determined from these curves.

TNFα Converting Enzyme = target: T2, TNFα Converting Enzyme (Homo sapiens, UniProt P78536); test: TNFα converting enzyme inhibition, MonoMac 6 membrane preparation, radiolabeled substrate SPA; format: biochemical; for TNFα Converting Enzyme Ki: 200 nM substrate
T2 construct: Membrane preparation from MonoMac 6 cells; endogenous in cells; host or cells: MonoMac 6 cells, subfractionated membrane preparation
Description: The reaction is quenched by addition of streptavidin SPA beads (Amersham RPNQ0006), with excess binding capacity relative to substrate, suspended in 250 mM EDTA, pH 8.0. Binding is complete within 15 minutes and plates are counted in a Wallac 1450 Microbeta liquid scintillation counter. Percent inhibition is calculated at each inhibitor concentration and the data are plotted using standard curve fitting programs. IC50 values are determined from these curves. Assays are run at low substrate concentration ([S]<<Km) such that the calculated IC50 values are equivalent to Ki within experimental error.

serum TNFα = test: Murine LPS-stimulated serum TNF inhibition; format: in vivo, mouse (C3/hen female mice); details: s.c., 40 mg/kg, 10 min prior to 200 μg/kg i.p. LPS; 90 min after LPS
Description: USA) for a final DMSO concentration of 1%. The dosing solution is sonicated briefly and 0.2 mL is injected subcutaneously 10 min prior to LPS injection, b) for per oral (p.o.) administration, test compounds are formulated in 0.2 mL of PBS and 0.1% Tween 80 and given orally via gavage 10 min prior to LPS administration.
Blood is immediately taken from the caudal vena cava and plasma prepared and frozen at -80° C. Plasma concentrations of TNF are measured by ELISA (Genzyme Co., Cambridge Mass.).

[3] = read-out: TNFα Converting Enzyme Ki

Sequence of stromelysin-1 (P08254 100-477): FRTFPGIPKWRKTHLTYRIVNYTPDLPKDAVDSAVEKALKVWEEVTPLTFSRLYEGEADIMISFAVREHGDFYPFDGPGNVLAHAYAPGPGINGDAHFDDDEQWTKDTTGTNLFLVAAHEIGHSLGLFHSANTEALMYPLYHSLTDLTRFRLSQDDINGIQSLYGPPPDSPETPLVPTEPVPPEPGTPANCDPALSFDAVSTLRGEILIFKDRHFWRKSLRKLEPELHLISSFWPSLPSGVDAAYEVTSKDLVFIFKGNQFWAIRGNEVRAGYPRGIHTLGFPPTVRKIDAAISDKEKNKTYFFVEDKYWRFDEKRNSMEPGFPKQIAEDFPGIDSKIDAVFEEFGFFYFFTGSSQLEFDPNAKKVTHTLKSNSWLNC
T2 sequence (P78536 215-824): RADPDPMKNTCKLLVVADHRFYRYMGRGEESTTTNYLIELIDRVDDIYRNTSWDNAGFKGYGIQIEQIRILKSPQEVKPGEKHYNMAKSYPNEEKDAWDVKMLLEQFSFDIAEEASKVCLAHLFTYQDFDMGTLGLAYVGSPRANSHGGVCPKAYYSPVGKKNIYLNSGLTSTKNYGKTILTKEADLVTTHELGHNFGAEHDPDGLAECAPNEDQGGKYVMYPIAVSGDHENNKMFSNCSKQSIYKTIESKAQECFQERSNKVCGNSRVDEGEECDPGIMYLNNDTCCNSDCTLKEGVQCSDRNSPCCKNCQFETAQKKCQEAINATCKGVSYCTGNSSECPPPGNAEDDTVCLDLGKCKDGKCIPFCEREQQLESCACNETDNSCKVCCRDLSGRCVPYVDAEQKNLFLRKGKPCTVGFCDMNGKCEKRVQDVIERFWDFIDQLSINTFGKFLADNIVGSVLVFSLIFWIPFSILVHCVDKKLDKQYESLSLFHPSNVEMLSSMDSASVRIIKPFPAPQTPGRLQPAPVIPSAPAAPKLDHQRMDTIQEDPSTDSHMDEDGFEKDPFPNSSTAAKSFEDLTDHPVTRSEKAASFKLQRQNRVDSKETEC

Row | SMILES | Ki [1] [nM] | Ki (stromelysin-1) [nM] | IC50 [2] [nM] | Ki (TNFα Converting Enzyme) [nM] | Percentage Inhibition of Serum TNFα (serum TNFα) | Ki (TNFα Converting Enzyme; [3]) [nM]
1 | CCC[C@@H]([C@@H](Cc1ccc(C)s1)C(=O)N[C@@H](CCCNC(N)=N[N+](=O)[O-])C(=O)Nc1nccs1)N(O)C=O [Example 9, (2R,3S)-3-(Formyl-hydroxyamino)-2-(5-methyl-2-thio-phenemethyl)hexanoic Acid [(1S)-4-((nitroimino-amino)methylamino)-1-(1,3-thiazol-2-ylcarbamoyl)-1-butyl]amide] | > 1000 | 50 to 250 | 50 to 250 | – | – | –
2 | NC(=N[N+](=O)[O-])NCCC[C@H](NC(=O)[C@H](CC1CCCCC1)[C@H](C1CC1)N(O)C=O)C(=O)Nc1nccs1 [Example 10, (2R,3S)-3-(Formyl-hydroxyamino)-2-(cyclohexylmethyl)-3-cyclopropylpropanoic Acid [(1S)-4-(nitroimino-amino)methylamino-1-(1,3-thiazol-2-ylcarbamoyl)-1-butyl]amide] | 50 to 250 | > 1000 | 250 to 500 | < 50 | ++ (50%-75%) | –
3 | NC(=N[N+](=O)[O-])NCCC[C@H](NC(=O)[C@H](CC1CCCCC1)[C@H](CCC(F)(F)F)N(O)C=O)C(=O)Nc1nccs1 [Example 6, (2R,3S)-3-(Formyl-hydroxyamino)-2-(cyclohexylmethyl)-6,6,6-trifluorohexanoic Acid [(1S)-4-(nitroimino-amino)methylamino-1-(1,3-thiazol-2-ylcarbamoyl)-1-butyl]amide] | 50 to 250 | 50 to 250 | 50 to 250 | – | ++ (50%-75%) | < 50
4 | CCC[C@@H]([C@@H](CC1CCCCC1)C(=O)N[C@@H](CCCNC(N)=N[N+](=O)[O-])C(=O)Nc1nccs1)N(O)C=O [Example 2, (2R,3S)-3-(Formyl-hydroxyamino)-2-(cyclohexylmethyl)hexanoic Acid [(1S)-4-(nitroimino-amino)methylamino-1-(1,3-thiazol-2-ylcarbamoyl)-1-butyl]amide] | 50 to 250 | 50 to 250 | < 50 | – | ++ (50%-75%) | < 50
5 | CCC[C@@H]([C@@H](CC(C)C)C(=O)N[C@@H](CCCNC(N)=N[N+](=O)[O-])C(=O)Nc1nccs1)N(O)C=O [Example 1, (2R,3S)-3-(Formyl-hydroxyamino)-2-(2-methyl-1-propyl)hexanoic Acid [(1S)-4-(nitroimino-amino)methylamino-1-(1,3-thiazol-2-ylcarbamoyl)-1-butyl]amide] | < 50 | < 50 | < 50 | – | +++ (>75%) | –
6 | CC(C)C[C@@H](C(=O)N[C@H](C(=O)Nc1nccs1)[C@H](C)CCNC(N)=N[N+](=O)[O-])[C@H](C)N(O)C=O [Example 3, (2R,3S)-3-(Formyl-hydroxyamino)-2-(2-methyl-1-propyl)butanoic Acid [(1S,2R)-2-Methyl-4-(nitroimino-amino)methylamino-1-(1,3-thiazol-2-ylcarbamoyl)-1-butyl]amide] | < 50 | 50 to 250 | < 50 | – | – | < 50
7 | CC1CCC(C[C@@H](C(=O)N[C@@H](CCCNC(N)=N[N+](=O)[O-])C(=O)Nc2nccs2)[C@H](C(C)C)N(O)C=O)CC1 (stereo partly drawn) [Example 8, (2R,3S)-3-(Formyl-hydroxyamino)-2-(4-methylcyclohexyl-methyl)-4-methylpentanoic Acid [(1S)-4-(nitroimino-amino)methylamino-1-(1,3-thiazol-2-ylcarbamoyl)-1-butyl]amide] | 50 to 250 | 50 to 250 | < 50 | – | ++ (50%-75%) | –
8 | CCC[C@@H]([C@@H](CC(C)C)C(=O)N[C@H](C(=O)Nc1nccs1)[C@H](C)CCNC(N)=N[N+](=O)[O-])N(O)C=O [Example 4, (2R,3S)-3-(Formyl-hydroxyamino)-2-(2-methyl-1-propyl)hexanoic Acid [(1S,2R)-2-Methyl-4-(nitroimino-amino)methylamino-1-(1,3-thiazol-2-ylcarbamoyl)-1-butyl]amide] | < 50 | 50 to 250 | < 50 | – | – | < 50
9 | CCC[C@@H]([C@@H](CC1CCC(C)CC1)C(=O)N[C@@H](CCCNC(N)=N[N+](=O)[O-])C(=O)Nc1nccs1)N(O)C=O (stereo partly drawn) [Example 7, (2R,3S)-3-(Formyl-hydroxyamino)-2-(4-methylcyclohexyl-methyl)hexanoic Acid [(1S)-4-(nitroimino-amino)methyl-amino-1-(1,3-thiazol-2-ylcarbamoyl)-1-butyl]amide] | 50 to 250 | 50 to 250 | 50 to 250 | – | ++ (50%-75%) | < 50
10 | CC(C)C[C@@H](C(=O)N[C@@H](CCCNC(N)=N[N+](=O)[O-])C(=O)Nc1nccs1)[C@H](Cc1ccccc1)N(O)C=O [Example 5] | < 50 | < 50 | 250 to 500 | – | – | –

From patent US6191150A, “Formamide compounds as therapeutic agents” (Glaxo Wellcome Inc., priority 1998, dated 2001)
